What was measured:
Test in all cases: In vitro IC50 profile for CDKs family kinase (33PanQinase radiometric assay)
Assay type in all cases: biochemical
Conditions in all cases: CDK7 selectivity profile in CDKs family
CDK12 wt/CycK = biological target: T1, CDK12 wt/CycK (Homo sapiens, UniProt Q9NYV4)
T1 construct: purchased ProQinase GmbH
Protocol: (§1) In Vitro IC50 Profile for CDK7 Inhibitor Among 28 CDKs Family Kinases.
(§2) The IC50 profile of compounds were determined using 28 CDKs family protein kinases through ProQinase GmbH (Freiburg, Germany). All the protocol and materials had been provided by ProQinase GmbH. Briefly, in the process, 90 μl H2O were added to each well of a compound dilution plate. To minimize potential precipitation, the H2O was added to the plate only a few minutes before the transfer of the compound solutions into the assay plates. The plate was shaken thoroughly, resulting in a “compound dilution plate/10% DMSO”. The compound dilution plate(s) were discarded at the end of the working day. For the assays (see below), 5 μl solution from each well of the compound dilution plate were transferred into the assay plates. The final volume of the assay was 50 μl. All compounds were tested at 10 final assay concentrations in the range from 1×10^−05 M to 3×10^−10 M. The final DMSO concentration in the reaction cocktails was 1% in all cases. All protein kinases provided by ProQinase were expressed in Sf9 insect cells or in E. coli as recombinant GST-fusion proteins or His-tagged proteins, either as full-length or enzymatically active fragments. All kinases were produced from human cDNAs and purified by either GSH affinity chromatography or immobilized metal affinity chromatography. The purity of the protein kinases was examined by SDS-PAGE/Coomassie staining, the identity was checked by mass spectroscopy. Kinases from external vendors, Carna Biosciences Inc.; Invitrogen Corp.; and Millipore Corp., were expressed, purified and quality-controlled by virtue of the vendors readings. A radiometric protein kinase assay (^33PanQinase® Activity Assay) was used for measuring the kinase activity of the 28 protein kinases. All kinase assays were performed in 96-well FlashPlates™ from PerkinElmer (Boston, MA, USA) in a 50 μl reaction volume. The reaction cocktails were incubated at 30° C. for 60 minutes. The reaction was stopped with 50 μl of 2% (v/v) H3PO4, plates were aspirated and washed two times with 200 μl 0.9% (w/v) NaCl. Incorporation of ^33Pi was determined with a microplate scintillation counter (Microbeta, Wallac). All assays were performed with a BeckmanCoulter/SAGIAN™ Core System. As part of the data evaluation the low control value from a particular plate was subtracted from the high control value as well as from all 80 “compound values” of the corresponding plate. The residual activity (in %) for each well of a particular plate was calculated by using the following formula: Res. Activity (%)=100×[(cpm of compound−low control)/(high control−low control)]. Results are represented in table (table 10).

CDK5/p25NCK = biological target: T2, CDK5/p25NCK (Homo sapiens, UniProt Q00535)
T2 construct: purchased ProQinase GmbH
Protocol: as §1, §2

CDK1/CycA2 = biological target: T3, CDK1/CycA2 (Homo sapiens, UniProt P06493)
T3 construct: purchased ProQinase GmbH
Protocol: as §1, §2

CDK6/CycD2 = biological target: T4, CDK6/CycD2 (Homo sapiens, UniProt Q00534)
T4 construct: purchased ProQinase GmbH
Protocol: as §1, §2

CDK4/CycD3 = biological target: T5, CDK4/CycD3 (Homo sapiens, UniProt P11802)
T5 construct: purchased ProQinase GmbH
Protocol: as §1, §2

CDK12 R722C/CycK = biological target: T6, CDK12 R722C/CycK (Homo sapiens, UniProt Q9NYV4, R722C)
T6 construct: either as full-length or enzymatically active fragments; purchased ProQinase GmbH (Freiburg, Germany)
Protocol: as §1, §2

CDK9/CycK = biological target: T7, CDK9/CycK (Homo sapiens, UniProt P50750)
T7 construct: purchased ProQinase GmbH
Protocol: as §1, §2

CDK1/CycE1 = biological target: T8, CDK1/CycE1 (Homo sapiens, UniProt P06493)
T8 construct: purchased ProQinase GmbH
Protocol: as §1, §2

CDK8/CycC = biological target: T9, CDK8/CycC (Homo sapiens, UniProt P49336)
T9 construct: purchased ProQinase GmbH
Protocol: as §1, §2

CDK9/CycT1 = biological target: T10, CDK9/CycT1 (Homo sapiens, UniProt P50750)
T10 construct: purchased ProQinase GmbH
Protocol: as §1, §2

CDK20/CycH = biological target: T11, CDK20/CycH (Homo sapiens, UniProt Q8IZL9)
T11 construct: either as full-length or enzymatically active fragments; purchased ProQinase GmbH (Freiburg, Germany)
Protocol: as §1, §2

CDK7/CycH/MAT1 = biological target: T12, CDK7/CycH/MAT1 (Homo sapiens, UniProt P50613)
T12 construct: purchased ProQinase GmbH
Protocol: as §1, §2

CDK13/CycK = biological target: T13, CDK13/CycK (Homo sapiens, UniProt Q14004)
T13 construct: either as full-length or enzymatically active fragments; purchased ProQinase GmbH (Freiburg, Germany)
Protocol: as §1, §2

CDK19/CycC = biological target: T14, CDK19/CycC (Homo sapiens, UniProt Q9BWU1)
T14 construct: either as full-length or enzymatically active fragments; purchased ProQinase GmbH (Freiburg, Germany)
Protocol: as §1, §2

CDK2/CycD1 = biological target: T15, CDK2/CycD1 (Homo sapiens, UniProt P24941)
T15 construct: purchased ProQinase GmbH
Protocol: as §1, §2

CDK4/CycD1 = biological target: T16, CDK4/CycD1 (Homo sapiens, UniProt P11802)
T16 construct: purchased ProQinase GmbH
Protocol: as §1, §2

CDK16/CycY = biological target: T17, CDK16/CycY (Homo sapiens, UniProt Q00536)
T17 construct: either as full-length or enzymatically active fragments; purchased ProQinase GmbH (Freiburg, Germany)
Protocol: as §1, §2

CDK1/CycB1 = biological target: T18, CDK1/CycB1 (Homo sapiens, UniProt P06493)
T18 construct: purchased ProQinase GmbH
Protocol: as §1, §2

CDK2/CycE1 = biological target: T19, CDK2/CycE1 (Homo sapiens, UniProt P24941)
T19 construct: purchased ProQinase GmbH
Protocol: as §1, §2

CDK17/p35NCK = biological target: T20, CDK17/p35NCK (Homo sapiens, UniProt Q00537)
T20 construct: either as full-length or enzymatically active fragments; purchased ProQinase GmbH (Freiburg, Germany)
Protocol: as §1, §2

CDK4/CycD2 = biological target: T21, CDK4/CycD2 (Homo sapiens, UniProt P11802)
T21 construct: purchased ProQinase GmbH
Protocol: as §1, §2

CDK6/CycD3 = biological target: T22, CDK6/CycD3 (Homo sapiens, UniProt Q00534)
T22 construct: purchased ProQinase GmbH
Protocol: as §1, §2

CDK3/CycE1 = biological target: T23, CDK3/CycE1 (Homo sapiens, UniProt Q00526)
T23 construct: purchased ProQinase GmbH
Protocol: as §1, §2

CDK2/CycA2 = biological target: T24, CDK2/CycA2 (Homo sapiens, UniProt P24941)
T24 construct: purchased ProQinase GmbH
Protocol: as §1, §2

CDK6/CycD1 = biological target: T25, CDK6/CycD1 (Homo sapiens, UniProt Q00534)
T25 construct: purchased ProQinase GmbH
Protocol: as §1, §2

T5 sequence (P11802 whole entry): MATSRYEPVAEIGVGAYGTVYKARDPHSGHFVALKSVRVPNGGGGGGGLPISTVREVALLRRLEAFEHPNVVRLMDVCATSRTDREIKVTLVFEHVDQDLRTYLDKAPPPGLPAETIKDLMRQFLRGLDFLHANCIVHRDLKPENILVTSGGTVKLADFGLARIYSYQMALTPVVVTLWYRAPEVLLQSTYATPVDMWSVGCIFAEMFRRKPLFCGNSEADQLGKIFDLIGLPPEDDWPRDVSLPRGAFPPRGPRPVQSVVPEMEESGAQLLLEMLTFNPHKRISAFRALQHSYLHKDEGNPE
T5 sequence (P30281 whole entry partner): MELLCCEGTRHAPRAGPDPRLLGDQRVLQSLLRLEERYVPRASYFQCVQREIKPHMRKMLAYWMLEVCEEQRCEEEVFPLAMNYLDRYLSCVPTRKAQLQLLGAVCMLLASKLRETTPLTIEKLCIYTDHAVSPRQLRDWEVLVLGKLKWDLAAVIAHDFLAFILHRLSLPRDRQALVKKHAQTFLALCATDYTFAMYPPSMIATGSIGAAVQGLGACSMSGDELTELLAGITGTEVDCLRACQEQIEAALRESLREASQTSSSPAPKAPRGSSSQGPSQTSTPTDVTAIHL
T21 sequence (P11802 whole entry): as the sequence (P11802 whole entry) above
T21 sequence (P30279 whole entry partner): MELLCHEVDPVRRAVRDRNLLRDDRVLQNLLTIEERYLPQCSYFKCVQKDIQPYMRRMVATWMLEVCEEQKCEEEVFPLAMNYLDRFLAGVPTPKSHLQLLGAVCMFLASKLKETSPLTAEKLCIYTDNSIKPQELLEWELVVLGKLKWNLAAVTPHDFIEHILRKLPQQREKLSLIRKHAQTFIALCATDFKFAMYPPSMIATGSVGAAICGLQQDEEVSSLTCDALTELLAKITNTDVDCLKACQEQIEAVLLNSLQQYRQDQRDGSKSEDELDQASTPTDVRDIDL
T6 sequence (Q9NYV4 whole entry R722C, the tested form may be a part): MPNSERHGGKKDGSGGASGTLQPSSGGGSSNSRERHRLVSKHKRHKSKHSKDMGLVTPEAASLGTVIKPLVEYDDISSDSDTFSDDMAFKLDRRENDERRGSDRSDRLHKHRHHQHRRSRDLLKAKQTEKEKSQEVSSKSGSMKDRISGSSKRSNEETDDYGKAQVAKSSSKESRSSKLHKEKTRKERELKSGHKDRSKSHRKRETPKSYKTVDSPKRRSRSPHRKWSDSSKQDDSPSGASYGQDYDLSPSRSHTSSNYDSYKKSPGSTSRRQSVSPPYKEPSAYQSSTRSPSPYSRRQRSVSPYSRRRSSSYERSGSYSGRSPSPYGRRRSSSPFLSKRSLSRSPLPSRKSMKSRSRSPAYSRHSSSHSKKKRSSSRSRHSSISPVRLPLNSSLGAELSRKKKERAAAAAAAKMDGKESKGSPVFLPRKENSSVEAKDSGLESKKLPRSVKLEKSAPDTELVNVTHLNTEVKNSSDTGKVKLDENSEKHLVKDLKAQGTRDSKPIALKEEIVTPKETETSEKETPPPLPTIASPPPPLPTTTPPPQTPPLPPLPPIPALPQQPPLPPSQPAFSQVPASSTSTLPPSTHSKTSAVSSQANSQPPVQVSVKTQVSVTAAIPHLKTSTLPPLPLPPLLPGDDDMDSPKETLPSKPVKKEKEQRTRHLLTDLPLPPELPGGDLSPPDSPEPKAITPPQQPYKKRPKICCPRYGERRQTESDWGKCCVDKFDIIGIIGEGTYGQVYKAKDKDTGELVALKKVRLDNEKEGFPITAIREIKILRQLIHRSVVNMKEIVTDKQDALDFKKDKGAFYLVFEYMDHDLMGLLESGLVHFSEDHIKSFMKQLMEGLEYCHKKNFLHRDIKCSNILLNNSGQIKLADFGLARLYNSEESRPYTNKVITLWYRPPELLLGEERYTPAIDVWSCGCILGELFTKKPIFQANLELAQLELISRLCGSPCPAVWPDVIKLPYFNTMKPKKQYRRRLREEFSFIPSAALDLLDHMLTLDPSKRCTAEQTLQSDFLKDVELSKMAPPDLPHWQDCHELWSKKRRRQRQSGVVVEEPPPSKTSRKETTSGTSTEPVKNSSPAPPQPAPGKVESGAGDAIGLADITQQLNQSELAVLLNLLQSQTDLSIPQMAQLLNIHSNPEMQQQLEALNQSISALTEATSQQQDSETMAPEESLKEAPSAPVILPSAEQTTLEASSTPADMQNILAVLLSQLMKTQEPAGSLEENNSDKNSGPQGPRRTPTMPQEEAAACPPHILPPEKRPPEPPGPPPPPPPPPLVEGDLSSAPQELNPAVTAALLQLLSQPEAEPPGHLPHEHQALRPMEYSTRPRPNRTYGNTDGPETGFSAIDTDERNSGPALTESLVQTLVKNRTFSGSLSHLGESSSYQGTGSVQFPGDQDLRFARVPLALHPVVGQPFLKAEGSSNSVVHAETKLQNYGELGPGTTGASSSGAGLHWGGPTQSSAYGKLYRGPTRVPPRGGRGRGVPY
T6 sequence (O75909 whole entry partner, the tested form may be a part): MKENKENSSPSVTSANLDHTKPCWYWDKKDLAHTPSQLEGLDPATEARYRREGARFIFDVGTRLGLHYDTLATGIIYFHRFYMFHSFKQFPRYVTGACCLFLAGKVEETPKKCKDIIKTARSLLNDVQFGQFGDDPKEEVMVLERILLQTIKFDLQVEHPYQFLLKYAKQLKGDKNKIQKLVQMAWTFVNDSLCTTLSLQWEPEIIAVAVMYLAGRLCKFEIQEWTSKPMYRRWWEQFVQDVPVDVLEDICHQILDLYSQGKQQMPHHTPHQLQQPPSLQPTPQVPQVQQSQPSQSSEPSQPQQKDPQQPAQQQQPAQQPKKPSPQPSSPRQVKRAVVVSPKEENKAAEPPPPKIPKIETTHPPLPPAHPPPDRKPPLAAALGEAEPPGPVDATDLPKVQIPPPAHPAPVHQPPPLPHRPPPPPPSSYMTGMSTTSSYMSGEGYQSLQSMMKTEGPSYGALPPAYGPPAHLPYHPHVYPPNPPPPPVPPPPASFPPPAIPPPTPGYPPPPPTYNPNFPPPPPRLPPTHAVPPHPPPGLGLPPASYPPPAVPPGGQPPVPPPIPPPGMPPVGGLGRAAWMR
T17 sequence (Q00536 whole entry, the tested form may be a part): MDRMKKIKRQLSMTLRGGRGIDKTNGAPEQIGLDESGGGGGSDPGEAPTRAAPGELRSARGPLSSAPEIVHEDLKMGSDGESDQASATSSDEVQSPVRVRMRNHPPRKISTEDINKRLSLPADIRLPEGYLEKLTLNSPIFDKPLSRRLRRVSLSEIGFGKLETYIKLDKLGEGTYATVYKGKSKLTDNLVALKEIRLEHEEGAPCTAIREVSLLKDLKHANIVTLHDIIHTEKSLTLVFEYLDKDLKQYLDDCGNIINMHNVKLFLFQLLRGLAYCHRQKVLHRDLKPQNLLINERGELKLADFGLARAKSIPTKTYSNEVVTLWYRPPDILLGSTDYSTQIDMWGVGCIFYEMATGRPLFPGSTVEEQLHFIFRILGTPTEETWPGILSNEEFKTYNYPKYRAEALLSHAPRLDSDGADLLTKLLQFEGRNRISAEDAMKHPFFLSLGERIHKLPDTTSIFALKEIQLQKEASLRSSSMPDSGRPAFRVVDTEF
T17 sequence (Q8ND76 whole entry partner, the tested form may be a part): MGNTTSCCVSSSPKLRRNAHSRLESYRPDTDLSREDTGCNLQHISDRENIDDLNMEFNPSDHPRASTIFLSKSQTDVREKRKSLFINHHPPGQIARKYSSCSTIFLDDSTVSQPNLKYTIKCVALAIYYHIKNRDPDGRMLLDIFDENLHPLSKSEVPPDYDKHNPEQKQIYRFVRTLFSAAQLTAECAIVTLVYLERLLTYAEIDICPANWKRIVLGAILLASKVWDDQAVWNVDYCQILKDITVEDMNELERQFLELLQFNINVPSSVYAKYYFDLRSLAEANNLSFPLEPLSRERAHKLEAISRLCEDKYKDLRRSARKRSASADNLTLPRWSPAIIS
T22 sequence (Q00534 whole entry): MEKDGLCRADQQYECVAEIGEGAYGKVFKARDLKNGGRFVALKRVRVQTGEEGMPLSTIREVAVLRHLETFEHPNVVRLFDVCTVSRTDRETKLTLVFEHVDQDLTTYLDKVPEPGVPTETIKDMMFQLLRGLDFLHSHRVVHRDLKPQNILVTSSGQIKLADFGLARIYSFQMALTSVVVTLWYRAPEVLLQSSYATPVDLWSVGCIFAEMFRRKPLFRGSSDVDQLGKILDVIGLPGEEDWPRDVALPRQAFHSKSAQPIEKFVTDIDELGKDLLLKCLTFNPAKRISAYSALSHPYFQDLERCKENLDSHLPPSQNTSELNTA
T22 sequence (P30281 whole entry partner): as the sequence (P30281 whole entry partner) above
T4 sequence (Q00534 whole entry): as the sequence (Q00534 whole entry) above
T4 sequence (P30279 whole entry partner): as the sequence (P30279 whole entry partner) above
T11 sequence (Q8IZL9 whole entry, the tested form may be a part): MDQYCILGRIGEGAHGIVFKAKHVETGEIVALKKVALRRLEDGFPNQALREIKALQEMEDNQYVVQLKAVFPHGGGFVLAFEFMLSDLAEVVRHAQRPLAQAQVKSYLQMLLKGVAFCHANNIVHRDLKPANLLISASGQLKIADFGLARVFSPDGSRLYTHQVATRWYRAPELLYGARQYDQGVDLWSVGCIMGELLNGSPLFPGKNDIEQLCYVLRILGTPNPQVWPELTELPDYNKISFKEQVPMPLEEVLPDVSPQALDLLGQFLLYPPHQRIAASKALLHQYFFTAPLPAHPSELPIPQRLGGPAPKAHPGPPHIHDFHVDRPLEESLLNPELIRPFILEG
T11 sequence (P51946 whole entry partner, the tested form may be a part): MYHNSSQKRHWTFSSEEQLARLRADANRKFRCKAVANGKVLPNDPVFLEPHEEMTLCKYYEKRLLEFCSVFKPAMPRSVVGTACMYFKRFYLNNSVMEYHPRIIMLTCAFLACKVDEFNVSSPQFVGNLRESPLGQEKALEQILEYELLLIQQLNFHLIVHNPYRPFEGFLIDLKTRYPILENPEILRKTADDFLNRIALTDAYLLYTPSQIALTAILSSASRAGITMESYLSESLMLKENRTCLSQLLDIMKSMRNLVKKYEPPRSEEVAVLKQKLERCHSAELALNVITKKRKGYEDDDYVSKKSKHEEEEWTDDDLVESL

CC(C)c1cnn2c(NCc3c(Cl)cccc3-n3ccc(C(C)(C)O)n3)nc(N3CCC(N)CC3)nc12 [Compound 210]
IC50 (CDK12 wt/CycK): > 10 µM | IC50 (CDK5/p25NCK): > 10 µM | IC50 (CDK1/CycA2): > 10 µM | IC50 (CDK6/CycD2): > 10 µM | IC50 (CDK4/CycD3): > 10 µM | IC50 (CDK12 R722C/CycK): > 10 µM | IC50 (CDK9/CycK): > 10 µM | IC50 (CDK1/CycE1): > 10 µM | IC50 (CDK8/CycC): > 10 µM | IC50 (CDK9/CycT1): > 10 µM | IC50 (CDK20/CycH): > 10 µM | IC50 (CDK7/CycH/MAT1): 0.015 µM | IC50 (CDK13/CycK): > 10 µM | IC50 (CDK19/CycC): > 10 µM | IC50 (CDK2/CycD1): > 10 µM | IC50 (CDK4/CycD1): > 10 µM | IC50 (CDK16/CycY): 3.96 µM | IC50 (CDK1/CycB1): > 10 µM | IC50 (CDK2/CycE1): 3.48 µM | IC50 (CDK17/p35NCK): > 10 µM | IC50 (CDK4/CycD2): > 10 µM | IC50 (CDK6/CycD3): > 10 µM | IC50 (CDK3/CycE1): > 10 µM | IC50 (CDK2/CycA2): 3.61 µM | IC50 (CDK6/CycD1): > 10 µM
